Key:
[1] = tested on: LPS-induced acute lung injury mice; assay: Survival in LPS-induced acute lung injury; format: in vivo, C57 mice; conditions: 20 mg/kg intraperitoneal once a day; up to 9 days; FIG. 28
Procedure: The model was constructed as follows, male mice C57 aged 6-8 weeks and weighing 18-22 g were anesthetized and fixed, and then 20 mg/kg LPS (E.coil) was dissolved in 50 μl of PBS and dripped under direct laryngoscopic vision to form a model group. The experiment was divided into three groups, each having six mice, LPS group (model control group, airway drip of 50 μl LPS), LPS+20 mg/kg group (airway drip of 50 μl LPS, and given 20 mg/kg of TJ01-013 treatment), LPS+Sivelestat group (positive control group, airway drip of 50 μl LPS and given 5 mg/kg of Sivelestat treatment). The mode of administration was intraperitoneal injection, the volume of administration was 5 ml/kg, the frequency of administration was once a day, and the biological deaths and changes in body weights of the mice were observed and recorded every day, and the mice were regarded as physiologically dead if their body weights decreased by 20% or more compared with that before the administration of LPS. Survival curves were plotted based on deaths observed up to 9 days after administration.

[2] = tested on: tinnitus model mice; assay: Sodium salicylate-induced tinnitus; format: in vivo, C57BL/6 mice; conditions: 8 kHz and 16 kHz noise; 7.5, 15, 30 mg/kg, dose-dependence; vs model group; FIG. 85
Procedure: 7-week-old C57BL/6 male mice without tinnitus were screened for tinnitus-free mice using the acoustic startle (AS) response and gap pre-pulse inhibition of the acoustic startle (GPIAS). The mice were randomly divided into five groups, normal control group (normal, n=10), model control group (Control, n=10), TJ01-013 7.5 mg/kg treatment group (7.5 mg/kg, n=10), TJ01-013 15 mg/kg treatment group (15 mg/kg, n=10), and TJ01-013 30 mg/kg treatment group (30 mg/kg, n=10). Except for the normal control group, all the other groups were injected intraperitoneally with 450 mg/kg sodium salicylate to construct the model, in which the normal control group was injected intraperitoneally with the corresponding volume of saline, and the administration treatment was started on the day of modeling, in which the normal control group and the model control group were administrated vehicle (0.5% CMC-Na) by gavage, and the TJ01-013 treatment group was given the treatment of TJ01-013 with the corresponding concentration of TJ01-013 in a volume of 10 ml/kg, and the acoustic startle was measured again 3 hours after the last dose after 4 consecutive days of administration. Behavioral test, AS response paired with GPLAS response was the behavioral experiment to detect the presence of tinnitus. […] The output of the platform is amplified, sampled, stored in a computer, and analyzed offline. […]

[3] = tested on: rats of adenine induced kidney injury model; assay: Adenine-induced kidney injury; format: in vivo, SD rats; conditions: 15 mg/kg, 21 days; FIG. 12
[4] = tested on: DSS-induced enteritis mice; assay: DSS-induced inflammatory bowel disease; format: in vivo, C57BL/6J mice
Procedure: Eight-week-old C57BL/6J male mice were randomly divided into […], of which, G1 blank control group (8 mice), G2 positive control group (intraperitoneal injection of infliximab 10 mg/kg, 8 mice), G3 group (intraperitoneal injection of small-molecule drug TJ01-013, 5 mg/kg, 12 mice), G4 group (intraperitoneal injection of small-molecule drug TJ01-013, 10 mg/kg, 12 mice) and G5 group (intraperitoneal injection of small-molecule drug TJ01-013, 10 mg/kg, 12 mice). The configuration method of intraperitoneal injection drug was 5% DMSO+30% PEG400+65% ddH2O, the small-molecule compound was first dissolved in 5% DMSO, and then 30% PEG400 and 65% H2O were added sequentially, after 2 weeks of acclimatization, 2% DSS solution was given as drinking water for 6 days, and then was replaced with normal drinking water. During the experiment, the mice were injected intraperitoneally with the corresponding concentration of small-molecule compound every day; and the mice were recorded daily for weight change, fecal shape and blood in stool. During the experiment, the fecal shape and blood in stool were scored, and the disease activity index was calculated on day 3th, day 6th, and day 8th.
At the end of the experiment, after the mice were put to death with CO2, all the intestinal segments from the cecum to the anus were cut, photographed and measured for length.
The middle about 1 cm intestinal segment was taken into the embedding box and immersed in 4% paraformaldehyde, fixed and immersed for 72 h to prepare pathological specimens for HE staining, and the histopathological results were scored; tissue embedding, sectioning and HE staining were performed as follows:
The remaining intestinal segments were washed with pre-cooled saline using a 50 mL syringe, and after washing out the remaining liquid in the intestinal lumen, the tissues were cut into pieces with small scissors and mixed evenly, wrapped in tin foil and then rapidly frozen in liquid nitrogen, and all the operations were controlled to be completed within 10 minutes after the death of the mice. The tissues were lysed by Trizol, and RNA was extracted according to the instructions of Trizol; the obtained RNA was subjected to reverse transcription reaction with the Reverse Transcription Kit from ABI company; SYBR Green method was used to detect the inflammatory factors such as Cxcl1, G-CSF, IL6, IL-1β, S100A8, and TNF-α in the reversed transcription products, and the housekeeping gene Actin was used as an internal reference, and calculated and analyzed by 2-ΔΔCt method.

[5] = vs model control group, FIG. 23
[6] = vs model control group, FIG. 24

In the case of `O=C(O)C[S+]([O-])c1cc(NS(=O)(=O)c2ccc(Br)cc2)c2ccccc2c1O` (stereo not drawn) [I-1], the survival rate [1] is reported as “significantly elevated”, the “AS response amplitude ratios (GPIAS)” value [2] is reported as “decreased significantly” and the “IL-1β level in kidney tissues” value [3] is reported as “tendency to be decreased”. For the same compound, the Histopathological scores ([4]; FIG. 23) was “significantly reduced the pathological changes”, the “weight loss of the mice” value ([4]; intraperitoneal injection during DSS induction, FIG. 20) was “slowing down of the weight loss” and the disease activity index ([4]; intraperitoneal injection during DSS induction, FIG. 21) was “reduction of the disease activity index”. The colorectal length ([4]; vs model control group, FIG. 22) was “significantly greater”, the “colorectal tissue morphology (HE staining)” value [4, 5] was “more intact” and the “inflammatory infiltration of colorectal tissue” value [4, 5] was “reduced”. The “Cxcl1 expression level in colorectal tissue (q-PCR)” value [4, 6] was “significantly reduced”, the “G-CSF expression level in colorectal tissue (q-PCR)” value [4, 6] was “significantly reduced” and the “IL6 expression level in colorectal tissue (q-PCR)” value [4, 6] was “significantly reduced”. For the same compound, the “IL-1β expression level in colorectal tissue (q-PCR)” value [4, 6] was “significantly reduced”, the “S100A8 expression level in colorectal tissue (q-PCR)” value [4, 6] was “significantly reduced” and the “TNF-α expression level in colorectal tissue (q-PCR)” value [4, 6] was “significantly reduced”.
